Measured values reported in patent publication KR20170021349A, “다양한 질병의 치료를 위한 jnk 신호 전달 경로의 세포 투과성 펩타이드 억제자의 새로운 용도” (자이겐 인플라메이션 리미티드, priority 2014, dated 2017).

Assays:
[1] = tested on: Sprague-Dawley albino rats; test: Light-induced photoreceptor damage (AMD model), ERG and ONL thickness; assay type: in vivo, rat
rats = test: Adriamycin-induced nephropathy; assay type: in vivo, rat
[2] = tested on: primary mouse cortical neurons (WT); test: Aβ42-induced stress/apoptosis in WT cortical neurons; assay type: cell-based
Brown Norway rats = test: Argon laser-induced choroidal neovascularization (ChNV), intravitreal; assay type: in vivo, rat
[3] = tested on: Huh7 tumours in nude mice; test: Huh7 human liver cancer xenograft; assay type: in vivo, mouse; settings: 5 mg/kg i.p. twice weekly, 4 weeks
C57BL/6 mice = test: Bleomycin-induced lung fibrosis, day 10; assay type: in vivo, mouse; settings: for lymphocyte recruitment and total cell number in BAL: 3x in 10 days; for decrease of inflammatory cell accumulation, fibrotic areas, loss of lung architecture (histology): day 10
db/db mice = test: db/db mouse model of type 2 diabetes; assay type: in vivo
[4] = Phase I single ascending i.v. dose study, healthy male volunteers; assay type: in vivo, human
[5] = tested on: Mapk14f/f and Mapk14Δli* mice; test: DEN-induced hepatocyte proliferation (Ki67) in Mapk14-deficient mice; assay type: in vivo, mouse; settings: 20 mg/kg i.p. before DEN, 48 h
[6] = 10 μM pre-treatment, 2 μM Aβ42 5 h (Example 49)
[7] = peptide pre-treatment 1 h (XG-102 10 μM), 2 μM Aβ42

Question: For “NH2-DQSRPVQPFLNLTTPRKPRPPRRRQRRKKRG-COOH (H-DQSRPVQPFLNLTTPRKPRPPRRRQRRKKRG-OH; also: D-amino acids (positions not given here)) [XG-102]”, which “a-wave recovery (% of baseline)” value ([1]; 150 μg/eye IVT, day 23 (vehicle 22.5)) is on record?
Answer: The value was 23.7%.

Question: What about the “b-wave recovery (% of baseline)” value ([1]; 150 μg/eye IVT, day 23 (vehicle 30.6)) of the same substance?
Answer: Its value is 37.1%.

Question: What about the “ONL thickness loss (% vs non-induced control eyes)” value ([1]; 150 μg/eye ivt) of the same substance?
Answer: Its value is 53%.

Question: And the ONL thickness ([1]; 150 μg/eye ivt, day 23)?
Answer: The ONL thickness was 18.95 ± 9.17 μm.

Question: What about the “development of glomerular and tubulointerstitial fibrosis” value (rats; 2 mg/kg i.v. day 0) of the same substance?
Answer: Its value is “발생을 예방하고”.

Question: What about the “effect on adriamycin-induced nephropathy (histology)” value (rats; 20, 200, 2000 μg/kg i.v., days 8-41) of the same substance?
Answer: The value was “현저하게 긍정적인 효과를 갖는다”.

Question: And the “serum urea level throughout the disease course” value (rats; ADR 10 mg/kg + XG-102 2 mg/kg i.v. day 0, up to day 56)?
Answer: The value was no more than 10 mmol/L.

Question: And the “adverse effect on proteinuria” value (rats; albumin ELISA, Fig. 41)?
Answer: Its value is “어떠한 역효과도 유발하지 않는”.

Question: What about the “c-jun expression in the interstitium” value (rats; days 8 and 14, Fig. 46-47) of the same substance?
Answer: Its value is “현저한 감소를 초래”.

Question: What about the “JNK activity (pJNK/JNK)” value [2, 6] of the same substance?
Answer: The value was “변화는 관찰되지 않았다”.

Question: And the “decrease of apoptosis (cleaved PARP)” value [2, 6]?
Answer: The value was 37%.

Question: What about the “decrease of caspase 3 activity” value ([2]; 10 μM, 2 μM Aβ42) of the same substance?
Answer: Its value is 71%.

Question: And the “decrease of cleaved PARP expression level” value ([2]; 10 μM, 2 μM Aβ42)?
Answer: Its value is 55%.

Question: What about the “decrease of cleaved caspase 3 expression level” value ([2]; 10 μM, 2 μM Aβ42) of the same substance?
Answer: The value was 93%.

Question: What about the “change of c-Jun expression vs stressed neurons without peptide” value [2, 7] of the same substance?
Answer: The value was -65%.

Question: What about the “change of c-Jun phosphorylation vs stressed neurons without peptide” value [2, 7] of the same substance?
Answer: Its value is -74%.

Question: And the “mean score of fluorescein leakage (mean ± SD)” value (from here on “mean score … (mean ± SD)”) (Brown Norway rats; 300 μg/ml IVT D0,D7, day 14)?
Answer: Its value is 2.4 ± 0.9.

Question: What about the “mean score … (mean ± SD)” value (Brown Norway rats; 300 μg/ml IVT D0,D7, day 21) of the same substance?
Answer: Its value is 2.4 ± 0.8.

Question: What about the “% spots with score 0” value (Brown Norway rats; 300 μg/ml, day 14) of the same substance?
Answer: Its value is 7%.

Question: And the “% spots with score 1” value (Brown Norway rats; 300 μg/ml, day 14)?
Answer: The value was 9%.

Question: What about the “% spots with score 2” value (Brown Norway rats; 300 μg/ml, day 14) of the same substance?
Answer: The value was 18%.

Question: What about the “% spots with score 3” value (Brown Norway rats; 300 μg/ml, day 14) of the same substance?
Answer: Its value is 66%.

Question: And the “reduction % vs vehicle” value (Brown Norway rats; 300 μg/ml, day 14, p<0.05)?
Answer: The value was 17%.

Question: What about the “% spots with score 0” value (Brown Norway rats; 300 μg/ml, day 21) of the same substance?
Answer: The value was 5%.

Question: What about the “% spots with score 1” value (Brown Norway rats; 300 μg/ml, day 21) of the same substance?
Answer: Its value is 9%.

Question: And the “% spots with score 2” value (Brown Norway rats; 300 μg/ml, day 21)?
Answer: Its value is 32%.

Question: What about the “% spots with score 3” value (Brown Norway rats; 300 μg/ml, day 21) of the same substance?
Answer: Its value is 55%.

Question: What about the “reduction % vs vehicle” value (Brown Norway rats; 300 μg/ml, day 21) of the same substance?
Answer: The value was -9%.

Question: What about the “mean score … (mean ± SD)” value (Brown Norway rats; 3000 μg/ml IVT D0,D7, day 14) of the same substance?
Answer: Its value is 1.7 ± 0.7.

Question: And the “mean score … (mean ± SD)” value (Brown Norway rats; 3000 μg/ml IVT D0,D7, day 21)?
Answer: The value was 2.3 ± 0.7.

Question: And the “% spots with score 0” value (Brown Norway rats; 3000 μg/ml, day 14)?
Answer: The value was 0%.

Question: And the “% spots with score 1” value (Brown Norway rats; 3000 μg/ml, day 14)?
Answer: The value was 44%.

Question: What about the “% spots with score 2” value (Brown Norway rats; 3000 μg/ml, day 14) of the same substance?
Answer: The value was 44%.

Question: And the “% spots with score 3” value (Brown Norway rats; 3000 μg/ml, day 14)?
Answer: The value was 12%.

Question: And the “reduction % vs vehicle” value (Brown Norway rats; 3000 μg/ml, day 14, p<0.001)?
Answer: Its value is 41%.

Question: What about the “% spots with score 0” value (Brown Norway rats; 3000 μg/ml, day 21) of the same substance?
Answer: Its value is 0%.

Question: And the “% spots with score 1” value (Brown Norway rats; 3000 μg/ml, day 21)?
Answer: Its value is 14%.

Question: What about the “% spots with score 2” value (Brown Norway rats; 3000 μg/ml, day 21) of the same substance?
Answer: Its value is 47%.

Question: What about the “% spots with score 3” value (Brown Norway rats; 3000 μg/ml, day 21) of the same substance?
Answer: Its value is 40%.

Question: And the “reduction % vs vehicle” value (Brown Norway rats; 3000 μg/ml, day 21)?
Answer: Its value is -5%.

Question: And the “general behaviour of animals” value (Brown Norway rats; both doses IVT)?
Answer: Its value is “변화되지 않는다”.

Question: And the tumour growth [3]?
Answer: The tumour growth was “종양 성장을 현저하게 감소시켰다”.

Question: And the “lymphocyte recruitment and total cell number in BAL” value (C57BL/6 mice; 0.001 mg/kg s.c.)?
Answer: The value was “현저하게 감소시켰다”.

Question: And the “decrease of inflammatory cell accumulation, fibrotic areas, loss of lung architecture (histology)” value (C57BL/6 mice; 0.001 mg/kg)?
Answer: Its value is “관찰되었으나”.

Question: What about the “lymphocyte recruitment and total cell number in BAL” value (C57BL/6 mice; 0.1 mg/kg s.c.) of the same substance?
Answer: Its value is “효과가 없었다”.

Question: What about the “decrease of inflammatory cell accumulation, fibrotic areas, loss of lung architecture (histology)” value (C57BL/6 mice; 0.1 mg/kg) of the same substance?
Answer: Its value is “관찰되지 않았다”.

Question: And the “effect on fasting blood glucose” value (db/db mice; 1 mg/kg s.c. daily 28 days)?
Answer: Its value is “효과가 관찰되지 않았다”.

Question: What about the “effect on body weight” value (db/db mice; 1 mg/kg, 28 days) of the same substance?
Answer: The value was “효과가 관찰되지 않았다”.

Question: What about the “fasting blood glucose plateau” value (db/db mice; 10 mg/kg s.c. daily 21 days, persisted to day 111, p<0.001) of the same substance?
Answer: The value was roughly 5 mmol/L.

Question: What about the “brain, spleen, heart weight” value (db/db mice; 10 mg/kg, day 111) of the same substance?
Answer: The value was “현저한 효과가 관찰되지 않았다”.

Question: What about the “epididymal (p<0.05) and retroperitoneal (p<0.01) fat mass” value (db/db mice; 10 mg/kg, day 111) of the same substance?
Answer: Its value is “현저한 감소를 관찰했다”.

Question: And the “kidney (p<0.05) and liver (p<0.01) mass” value (db/db mice; 10 mg/kg, day 111)?
Answer: The value was “현저한 감소가 관찰되었다”.

Question: And the “plasma insulin, MCP-1, IL-6, tPAI-1, TNF” value (db/db mice; 10 mg/kg, days 57, 77, 108)?
Answer: The value was “현저한 효과가 발견되지 않았으며”.

Question: What about the plasma resistin (db/db mice; 10 mg/kg, days 77 and 108) of the same substance?
Answer: Its plasma resistin is “현저하게 높았다”.

Question: And the “24 h food and water intake, urine and faeces production” value (db/db mice; 10 mg/kg, metabolic cages)?
Answer: The value was “현저한 효과는 관찰되지 않았다”.

Question: What about the body weight gain (db/db mice; 10 mg/kg, from day 28 to 111) of the same substance?
Answer: Its body weight gain is “명확하고 현저한 예방”.

Question: What about the “injection-site finding in subcutaneous tissue” value (db/db mice; high dose, after about 2 weeks of dosing, progressed to open wounds, healed after end of dosing) of the same substance?
Answer: The value was “결절 섬유화가 발견되었고”.

Question: What about the “time at which plasma concentration fell below LLOQ” value (“time” for short) ([4]; 10 μg/kg i.v. infusion) of the same substance?
Answer: The value was ≤ 2 시간.

Question: And the “time” value ([4]; 40 μg/kg, after start of infusion)?
Answer: Its value is 3 시간.

Question: And the “time” value ([4]; 80 μg/kg, after start of infusion)?
Answer: The value was ≤ 7 시간.

Question: What about the “inter-subject variability of PK parameters (CV% of geometric mean)” value ([4]; 80 μg/kg, except MRT) of the same substance?
Answer: Its value is 29-44%.

Question: What about the “increase of AUC0-last with dose” value ([4]; 10-80 μg/kg) of the same substance?
Answer: Its value is “선형 이상의 비율로 증가했다”.

Question: What about the “inter-subject variability of PK parameters (CV% of geometric mean)” value ([4]; 10 and 40 μg/kg, most parameters) of the same substance?
Answer: The value was 15-30%.

Question: And the “increase of Cmax with dose” value ([4]; 40 to 80 μg/kg)?
Answer: The value was “선형 이상의 비율로 증가하는 것으로 나타났다”.

Question: And the safety and tolerability ([4]; single i.v. 10, 40 or 80 μg/kg)?
Answer: The safety and tolerability was “안전하고 내약성이 우수했다”.

Question: And the “hyperproliferation of Mapk14-/- hepatocytes (Ki67)” value [5]?
Answer: Its value is “되돌린다”.
